Active and inactive are the calls of the source. How the calls were made is not given here.
Biological target: Lethal factor (Bacillus anthracis) (UniProt P15917)
Assay: Bacillus anthracis LF protease inhibitors, dose response, biochemical, multiplex microsphere (AID 651901)
Conditions: multiplex microsphere LF protease cleavage assay, flow cytometry

Chain of Lethal factor (Bacillus anthracis) (P15917 whole entry, looked up): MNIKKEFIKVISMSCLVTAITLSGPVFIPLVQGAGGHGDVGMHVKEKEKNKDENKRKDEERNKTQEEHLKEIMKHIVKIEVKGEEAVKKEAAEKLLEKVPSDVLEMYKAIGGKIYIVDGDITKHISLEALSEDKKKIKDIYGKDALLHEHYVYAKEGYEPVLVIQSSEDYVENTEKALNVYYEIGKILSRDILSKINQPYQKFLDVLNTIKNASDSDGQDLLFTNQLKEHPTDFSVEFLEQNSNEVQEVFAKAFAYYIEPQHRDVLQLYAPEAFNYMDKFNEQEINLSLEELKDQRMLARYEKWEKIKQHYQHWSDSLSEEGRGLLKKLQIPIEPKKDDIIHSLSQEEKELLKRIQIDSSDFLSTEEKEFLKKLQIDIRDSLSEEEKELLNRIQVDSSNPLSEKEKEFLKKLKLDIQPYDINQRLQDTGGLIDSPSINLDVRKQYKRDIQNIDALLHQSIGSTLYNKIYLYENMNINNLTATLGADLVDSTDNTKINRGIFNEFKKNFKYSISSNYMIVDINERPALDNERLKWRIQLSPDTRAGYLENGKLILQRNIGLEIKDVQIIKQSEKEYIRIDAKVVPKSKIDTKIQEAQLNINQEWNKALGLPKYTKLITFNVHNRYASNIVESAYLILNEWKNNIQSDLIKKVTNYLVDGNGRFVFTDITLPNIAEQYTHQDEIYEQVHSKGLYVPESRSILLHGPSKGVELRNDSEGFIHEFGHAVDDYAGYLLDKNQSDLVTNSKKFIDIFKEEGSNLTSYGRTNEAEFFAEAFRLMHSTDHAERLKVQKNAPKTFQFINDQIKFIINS

| Compound | IC50 |
| --- | --- |
| CSc1ccc(C2=NN(c3ccccc3)C(c3ccccc3)C2)cc1 (centres undefined) | > 20 µM (inactive) |
| c1ccc(C2CC(c3ccncc3)=NN2c2ccccc2)cc1 (centres undefined) | > 20 µM (inactive) |
| COc1ccc(N2N=C(c3ccncc3)CC2c2ccccc2)cc1 (centres undefined) | > 20 µM (inactive) |
| CSc1ccc(C2=NN(c3ccc(C(=O)N4CCOCC4)cc3)C(c3ccccc3)C2)cc1 (centres undefined) | > 20 µM (inactive) |
| CSc1ccc(C2=NN(c3ccc(S(C)(=O)=O)cc3)C(c3ccccc3)C2)cc1 (centres undefined) | > 20 µM (inactive) |
| CNC(=O)c1ccc(N2N=C(c3ccccc3)CC2c2ccccc2)cc1 (centres undefined) | > 20 µM (inactive) |
| CSc1ccc(C2=NN(c3ccc([N+](=O)[O-])cc3)C(c3ccccc3)C2)cc1 (centres undefined) | 0.1 µM |
| CS(=O)(=O)c1ccc(N2N=C(c3ccncc3)CC2c2ccccc2)cc1 (centres undefined) | > 20 µM (inactive) |
| O=C(c1ccc(N2N=C(c3ccccc3)CC2c2ccccc2)cc1)N1CCOCC1 (centres undefined) | > 20 µM (inactive) |
| COc1ccc(N2N=C(c3ccc(SC)cc3)CC2c2ccccc2)cc1 (centres undefined) | > 20 µM (inactive) |
| COc1ccc(N2N=C(c3cccnc3)CC2c2ccccc2)cc1 (centres undefined) | > 20 µM (inactive) |
| NS(=O)(=O)c1ccc(N2N=C(c3cccnc3)CC2c2ccccc2)cc1 (centres undefined) | > 20 µM (inactive) |
| NS(=O)(=O)c1ccc(N2N=C(c3ccncc3)CC2c2ccccc2)cc1 (centres undefined) | > 20 µM (inactive) |
| c1ccc(C2CC(c3cccnc3)=NN2c2ccccc2)cc1 (centres undefined) | > 20 µM (inactive) |
| NS(=O)(=O)c1ccc(N2N=C(c3ccccc3)CC2c2ccccc2)cc1 (centres undefined) | > 20 µM (inactive) |
| COc1ccc(N2N=C(c3ccccn3)CC2c2ccccc2)cc1 (centres undefined) | > 20 µM (inactive) |
| O=[N+]([O-])c1ccc(N2N=C(c3ccccc3)CC2c2ccccc2)cc1 (centres undefined) | > 20 µM (inactive) |
| CC(C)NC(=O)c1ccc(N2N=C(c3ccccc3)CC2c2ccccc2)cc1 (centres undefined) | > 20 µM (inactive) |
| CC(C)CNC(=O)c1ccc(N2N=C(c3ccccc3)CC2c2ccccc2)cc1 (centres undefined) | > 20 µM (inactive) |
| O=C(c1ccc(N2N=C(c3ccccc3)CC2c2ccccc2)cc1)N1CCCCC1 (centres undefined) | > 20 µM (inactive) |
| CS(=O)(=O)c1ccc(N2N=C(c3cccnc3)CC2c2ccccc2)cc1 (centres undefined) | > 20 µM (inactive) |
| CNC(=O)c1ccc(N2N=C(c3ccc(SC)cc3)CC2c2ccccc2)cc1 (centres undefined) | > 20 µM (inactive) |
| CSc1ccc(C2=NN(c3ccc(C(=O)N4CCCCC4)cc3)C(c3ccccc3)C2)cc1 (centres undefined) | > 20 µM (inactive) |
| COc1ccc(N2N=C(c3ccccc3)CC2c2ccccc2)cc1 (centres undefined) | > 20 µM (inactive) |
| c1ccc(C2CC(c3ccccn3)=NN2c2ccccc2)cc1 (centres undefined) | > 20 µM (inactive) |
| CSc1ccc(C2=NN(c3ccc(S(N)(=O)=O)cc3)C(c3ccccc3)C2)cc1 (centres undefined) | > 20 µM (inactive) |
| CS(=O)(=O)c1ccc(N2N=C(c3ccccc3)CC2c2ccccc2)cc1 (centres undefined) | > 20 µM (inactive) |
| c1ccc(-c2cc(-c3ccccc3)n(-c3ccccc3)n2)cc1 | > 20 µM (inactive) |
| c1ccc(C2=NN(c3ccccc3)C(c3ccccc3)C2)cc1 (centres undefined) | > 20 µM (inactive) |
